Data published in patent US20020102533A1, “Hepatitis C protease exosite for inhibit or design” (priority 2000, published 2002).
Where a SMILES comes first, the peptide text is derived from it. Where no end group is shown, it is not given here. [ ]: non-standard residue; d: D form. The star is where a group is joined. Dip = N[C@H](C(=O)O)C(c1ccccc1)c1ccccc1; X1 = C=CCC(N*)B1OC2CC3CC(C3(C)C)C2(C)O1; Cha = N[C@@H](CC1CCCCC1)C(=O)O; AlgCF2CF3 = not defined here; Abu = CC[C@H](N)C(=O)O

Legend:
[1] = target: T1, HCV NS3 protease, genotype 1a (Hepatitis C virus genotype 1a, UniProt P26664); assay: biochemical; format: biochemical; conditions: for (S = P6-P3′) Inhibition(+) / Activation (−): substrate A
T1 construct: NS3 protease catalytic domain (amino acids 1 to 192); MGAQH expression leader (5 aa), or alternatively the 15 aa His tag […]; made in house; host or cells: E. coli BL21 (DE3)
Experimental: (§1) Endpoint HPLC based HCV protease assay: HCV protease (5 nM) was incubated in 50 mM Tris pH 7.5, 0.1% maltoside, 5 mM DTT and appropriate amounts of glycerol, NS4A peptide, and substrate. Routine assays were 100 μl in volume containing 15% or 50% glycerol, 5.0 μM NS4A peptide and 5.0 μM substrate. Reactions were run at room temperature (˜22° C.) and quenched by the addition of 4 μl of 10% TFA before 10% of the substrate was consumed. Incubation times were 20 minutes for the ester substrate (Peptide Substrate A) and 80 minutes for the P6-P7′ amide substrate (Peptide Substrate B). […] Incubation times were 90 min. Samples, 50 μl, were injected onto an Hewlett Packard 1090 Liquid Chromatograph containing a Dynamax-60A C18 column. The column was eluted with a linear gradient from 10% acetonitrile to 45% acetonitrile in water. All solvents contained 0.1% TFA. A flow rate of 1 ml/min was used. […] The product peaks were detected by fluorescence excitation at 350 nm and emission at 500 nm.
Continuous fluorescence-based HCV protease assay: This asay was a modified version of method of Taliani (Taliani, M.; et al. Anal. Biochem. 240, 60-67, 1996) using Substrate A (Ac-D-E-D(EDANS)-E-E-Abuψ[COO]-A-S-K(DABCYL)—NH2). Assays were run in a 96-well microtiter plates using a Perkin Elmer Luminescence Spectrometer LS50B exciting at 350 nm (10 nm slit) and emitting at 500 nm (10 nm slit). In a typical assay the protease (1-4 nM) was incubated with 10 μM NS4a peptide in 50 mM Tris pH 7.0, 5.0 mM DTT, 50% glycerol, and […] for 15 min. Catalysis was initiated by the addition of Substrate A (final concentration 5.0 μM). Assays were also run under conditions where 15% glycerol, 0.1% Maltoside were substituted for 50% glycerol and 5% CHAPS. Enzymatic activity was monitored by measuring the increase in fluorescence with time using excitation wavelength of 350 nm and an emission wavelength of 500 nm. Both slit widths were 10 nm. Inhibition constants were determined from a nonlinear least squares fit of the data to the equation Vi/Vo=1/(1+[I]/Kiapp). Where Vi is the velocity measured in the presence of inhibitor (inhibitors were introduced with the NS4a peptide) and Vo is the velocity of controls. The thermodynamic Ki was determined from Kiapparent via the relationship for competitive kinetics: Ki=Kiapp/(1+[S]/Km) where [S] is the substrate concentration.
(§2) Footnote a for Table 1 references the assay condiditions: 1) Substrate A=P6-P3′, HCV protease (4.0 nM) was incubated with various concentrations of truncated analogs of Q9692 in 50 mM Tris buffer, pH 7.0, 15% glycerol, 0.1% maltoside, 5 mM DTT and 10 μM NS4A peptide in a 96-well microtiter plate at room temperature. After 15 minutes catalysis was initiated by the addition of Ac-D-E-D(EDANS)-E-E-Abuψ[COO]-A-S-K(DABCYL)—NH2 (final concentration 5.0 μM in a total reaction volume of 200 μl). Enzymatic activity was monitored by measuring the increase in fluorescence with time on a Perkin Elmer LS50B luminescence spectrometer (excitation 350 nm, emission 500 nm, both slits 10 nm). […] Assays were 100 μl in volume, reactions were run at room temperature (˜22 C) for 80 minutes (<10% of the substrate was consumed). The addition of 4 μl of 10% TFA quenched the reactions. Quantitation of hydrolysis products was determined by measuring fluorescent peak areas following HPLC. Products were detected by excitation at 350 nm and measuring emission at 500 nm. Aliquots (50 μl) of quenched enzymatic reactions were injected on an Hewlett Packard 1090 HPLC equipped with a ¼ inch Dynamex 60A C18 column. A linear gradient from 10% acetonitrile:H2O to 45% acetonitrile:H2O was run over a period of 15 min at a flow rate of 1.0 ml/min. All solvents contained 0.1% TFA.

[2] = target: T1, HCV NS3 protease, genotype 1a; format: biochemical; conditions: substrate B
Experimental: as §1, §2
Comparison of the effects of Q9692 on the hydrolysis of a P6-P3′ ester substrate (FIG. 2A) and a P6-P7′ substrate (FIG. 2B) and P6-P3′ amide substrate (FIG. 2C) were determined. For substrates A and B1 Concentrations of Q9692 are 0 (circles), 1 μM (squares), 2 μM (diamonds) and 4 μM (triangles). Assay conditions: HCV protease (5 nM) was incubated in 50 mM Tris buffer at pH 7.0, 15% glycerol, 0.1% maltoside, 5 mM DTT, 10 μM NS4A peptide, and specified concentration of substrate. Assays were 100 μl in volume and reactions were run at room temperature (22 C) and quenched by the addition of 4 μl of 10% TFA before 10% of the substrate was consumed. Incubation times were 20 minutes for the ester substrate and 80 minutes for the amide substrate. Hydrolysis products were quantitated by measuring fluorescent peak areas following HPLC and detection by excitation at 350 nm and measuring emission at 500 nm. Aliquots (50 μl) of quenched enzymatic reactions were injected on an Hewlett Packard 1090 HPLC equipped with a ¼ inch Dynamex 60A C18 column.

[3] = target: HCV protease; conditions: cited from earlier work
[4] = target: HCV protease (Hepatitis C virus genotype 1b, UniProt P26663); conditions: corresponding peptides as substrates; 50 mM Hepes pH 7.5, 1% CHAPS, 15% glycerol, NS4a cofactor peptide 80 μM; read-out: Ki; cited from earlier work
[5] = target: T2, HCV protease (NS3) (Hepatitis C virus genotype 1a, UniProt P26664); format: binding; conditions: added to NS3 alone; excitation 280 nm
T2 construct: NS3 protease catalytic domain (amino acids 1 to 192); MGAQH expression leader (5 aa), or alternatively the 15 aa His tag MRGSHHHHHHMGAQH; made in house; host or cells: E. coli BL21 (DE3)
Experimental: Intrinsic fluorescence studies: Assays were conducted in 0.5 ml fluorescent cuvettes (0.4 ml total volume). […] Fluorescence spectra were obtained by exiting at 280 nm (10 nm slit) and scanning the emission profile from 300 to 400 nm (10 nm slit) at 1 nm s^−1.
Fluorescence spectrum of HCV protease (0.45 μM) in 50 mM Tris buffer, pH 7.0, containing 15% glycerol, and 0.10% maltoside were measured over a range of 300-400 nm using an excitation wavelength of 280 nm. Both excitation and emission slit widths were 10 nm and the scan rate was 1.0 nm sec^−1.

Compound | Kd [1] | (S = P6-P3′) Inhibition(+) / Activation (−) [1] | (S = P6-P7′) Inhibition (+) / Activation (−) [2] | further results
CC(=O)N[C@@H](CC(=O)O)C(=O)N[C@@H](CCC(=O)O)C(=O)N[C@H](C(=O)N[C@@H](CCC(=O)O)C(=O)N[C@@H](CC1CCCCC1)C(N)=O)C(c1ccccc1)c1ccccc1 [Q228, Ac-Asp-Glu-Dpa-Glu-Cha-NH2] (Ac-DE[Dip]E[Cha]-NH2) | 25 µM | − | + | 
CC(=O)N[C@@H](CC(=O)O)C(=O)N[C@@H](CCC(=O)O)C(=O)N[C@H](C(=O)N[C@@H](CCC(=O)O)C(N)=O)C(c1ccccc1)c1ccccc1 [Q229, Ac-Asp-Glu-Dpa-Glu-NH2] (Ac-DE[Dip]E-NH2) | 240 µM | + | + | 
CC(=O)N[C@@H](CC(=O)O)C(=O)N[C@@H](CCC(=O)O)C(=O)N[C@H](C(N)=O)C(c1ccccc1)c1ccccc1 [Q230, Ac-Asp-Glu-Dpa-NH2] (Ac-Asp-Glu-[Dip]-NH2) | 400 µM | + | + | 
CC(=O)N[C@H](C(=O)N[C@@H](CCC(=O)O)C(=O)N[C@@H](CC1CCCCC1)C(N)=O)C(c1ccccc1)c1ccccc1 [Q236, Ac-Dpa-Glu-Cha-NH2] (Ac-[Dip]-Glu-[Cha]-NH2) | 66 µM | − | − | 
CC(=O)N[C@@H](CCC(=O)O)C(=O)N[C@H](C(=O)N[C@@H](CCC(=O)O)C(=O)N[C@@H](CC1CCCCC1)C(N)=O)C(c1ccccc1)c1ccccc1 [Q240, Ac-Glu-Dpa-Glu-Cha-NH2] (Ac-E[Dip]E[Cha]-NH2) | 80 µM | − | − | 
CC(=O)N[C@@H](CCC(=O)O)C(=O)N[C@@H](CC1CCCCC1)C(=O)N[C@@H](CS)C(=O)O [Q295, Ac-Glu-Cha-Cys-OH] (Ac-Glu-[Cha]-Cys-OH) | 300 µM | + | + | 
CC(=O)N[C@H](C(=O)N[C@@H](CCC(=O)O)C(=O)N[C@@H](CC1CCCCC1)C(=O)N[C@@H](CS)C(=O)O)C(c1ccccc1)c1ccccc1 [Q296, Ac-Dpa-Glu-Cha-Cys-OH] (Ac-[Dip]E[Cha]C-OH) | 1.5 µM | − | − | 
CC(=O)N[C@@H](CCC(=O)O)C(=O)N[C@H](C(=O)N[C@@H](CCC(=O)O)C(=O)N[C@@H](CC1CCCCC1)C(=O)N[C@@H](CS)C(=O)O)C(c1ccccc1)c1ccccc1 [Q297, Ac-Glu-Dpa-Glu-Cha-Cys-OH] (Ac-E[Dip]E[Cha]C-OH) | 40 µM | − | + | 
C=CCC(NC(=O)[C@H](CC1CCCCC1)NC(=O)[C@H](CCC(=O)O)NC(=O)[C@@H](NC(=O)[C@H](CCC(=O)O)NC(=O)[C@H](CC(=O)O)NC(C)=O)C(c1ccccc1)c1ccccc1)B1OC2CC3CC(C3(C)C)C2(C)O1 (stereo partly drawn) [Q9716, Ac-Asp-Glu-Dpa-Glu-Cha-boroAlg—C10H16] (Ac-DE[Dip]E[Cha]-X1) |  |  |  | Ki [1]: ~0.005 µM
Ac-Asp-(D)Glu-Chg-Val-X-Nva—OH |  |  |  | Ki [3]: 0.028 µM
Ac-EDVW[Abu]C-OH |  |  |  | Ki [4]: 1.4 µM
Asp-Glu-Val-Val-Pro-AlgCF2CF3 (DEVVP-AlgCF2CF3; reading uncertain; also: printed as Asp-Glu-Val-Val-Pro-AlgCF2CF3) [Q9714] |  |  |  | Dixon plots of 1/V versus Q9717 concentration ([1]; 5 μM substrate spanning P6-P3′): parallel lines
DCSTPC [Ac-DCSTPC—OH] |  |  |  | Ki [4]: 180 µM
DEMEEC [Ac-DEMEEC—OH] |  |  |  | Ki [4]: 0.6 µM
KKGSVVIVGRIVLSGKPAIIPKK [NS4a] |  |  |  | increase in intrinsic fluorescence of the protease (NS3) [5]: 25%
